# Assay results from ChEMBL document CHEMBL5038611, “Design, synthesis and bioevaluation of 6-aryl-1-(3,4,5-trimethoxyphenyl)-1H-benzo[d]imidazoles as tubulin polymerization inhibitors” (Eur J Med Chem, 2021).
# The source made the active and inactive calls. The rule behind the calls is not given here.
# Columns and labels:
# MCF7 [1] = experiment: Antiproliferative activity against human MCF7 cells assessed as reduction in cell viability incubated for 72 hrs by MTT assay; assay type: functional, cell-based; details: MCF7, 72 h
# A549 = experiment: Antiproliferative activity against human A549 cells assessed as reduction in cell viability incubated for 72 hrs by MTT assay; assay type: functional, cell-based; details: A549, 72 h
# SGC-7901 = experiment: Antiproliferative activity against human SGC-7901 cells assessed as reduction in cell viability incubated for 72 hrs by MTT assay; assay type: functional, cell-based; details: SGC-7901, 72 h
# [2] = Toxicity in BALB/c nude mouse xenografted with human MCF7 cells assessed as effect on spleen at 10 mg/kg, iv administered every 2 days for 2 weeks; assay type: organism-based; details: in vivo, 336 h
# Tubulin (Homo sapiens) [3] = biological target: T1, Tubulin (Homo sapiens) (UniProt P68371+Q9H4B7+P0DPH7+P68366+Q13509+Q71U36+P04350+Q3ZCM7+P07437+P68363+Q9BQE3+Q6PEY2+Q13885+Q9BVA1+Q9BUF5); experiment: Binding affinity to colchicine binding site of tubulin (unknown origin) assessed as decrease in fluorescence of colchicine-tubulin complex by fluorescence based assay; assay type: protein-complex assay
# MCF7 [4] = experiment: Induction of apoptosis in human MCF7 cells assessed as early apoptotic cells at 1 fold IC50 after 48 hrs by Annexin-V-FITC/PI-staining based flow cytometric analysis (reference value: 1.59%); assay type: functional
# MCF7 [5] = experiment: Induction of apoptosis in human MCF7 cells assessed as necrotic cells at 2 fold IC50 after 48 hrs by Annexin-V-FITC/PI-staining based flow cytometric analysis (reference value: 1.61%); assay type: functional
# Tubulin (Homo sapiens) [6] = biological target: T1, Tubulin (Homo sapiens); experiment: Inhibition of microtubule polymerization in human MCF7 cells assessed as disorganisation of microtubule by measuring short and wrapped structure at 2 times IC50 incubated for 24 hrs by DAPI staining based immunofluorescence assay; assay type: cell-based
# MCF7 [7] = experiment: Induction of apoptosis in human MCF7 cells assessed as necrotic cells at 3 fold IC50 after 48 hrs by Annexin-V-FITC/PI-staining based flow cytometric analysis (reference value: 1.61%); assay type: functional
# MCF7 [8] = experiment: Induction of apoptosis in human MCF7 cells assessed as late apoptotic cells at 2 fold IC50 after 48 hrs by Annexin-V-FITC/PI-staining based flow cytometric analysis (reference value: 0.556%); assay type: functional
# MCF7 [9] = experiment: Induction of apoptosis in human MCF7 cells assessed as viable cells at 1 fold IC50 after 48 hrs by Annexin-V-FITC/PI-staining based flow cytometric analysis (reference value: 96.2%); assay type: functional
# [10] = Toxicity in BALB/c nude mouse xenografted with mouse 4T1 cells assessed as body weight loss at 2.5 mg/kg, iv administered every 2 days for 2 weeks relative to control; assay type: organism-based; details: in vivo, 336 h
# [11] = Toxicity in BALB/c nude mouse xenografted with human MCF7 cells assessed as effect on spleen at 2.5 mg/kg, iv administered every 2 days for 2 weeks; assay type: organism-based; details: in vivo, 336 h
# MCF7 [12] = experiment: Induction of apoptosis in human MCF7 cells assessed as late apoptotic cells at 3 fold IC50 after 48 hrs by Annexin-V-FITC/PI-staining based flow cytometric analysis (reference value: 0.556%); assay type: functional
# [13] = Toxicity in BALB/c nude mouse xenografted with human MCF7 cells assessed as effect on liver at 2.5 mg/kg, iv administered every 2 days for 2 weeks; assay type: organism-based; details: in vivo, 336 h
# MCF7 [14] = experiment: Induction of cell cycle arrest in human MCF7 cells assessed as accumulation of cells at G2/M phase at 0.5 fold IC50 measured after 24 hrs by flow cytometry (reference value: 11 %); assay type: functional
# MCF7 [15] = experiment: Induction of cell cycle arrest in human MCF7 cells assessed as accumulation of cells at G2/M phase at 1 fold IC50 measured after 24 hrs by flow cytometry (reference value: 11 %); assay type: functional
# 4T1 = experiment: Antitumor activity against mouse 4T1 cells xenografted in BALB/c mouse assessed as reduction in tumor weight at 2.5 mg/kg, iv administered every 2 days for 2 weeks; assay type: functional; design: scale not given: the % may be the effect or the level left
# [16] = Toxicity in BALB/c nude mouse xenografted with human MCF7 cells assessed as effect on kidney at 2.5 mg/kg, iv administered every 2 days for 2 weeks; assay type: organism-based; details: in vivo, 336 h
# MCF7 [17] = experiment: Induction of apoptosis in human MCF7 cells assessed as late apoptotic cells at 1 fold IC50 after 48 hrs by Annexin-V-FITC/PI-staining based flow cytometric analysis (reference value: 0.556%); assay type: functional
# MCF7 [18] = experiment: Induction of apoptosis in human MCF7 cells assessed as necrotic cells at 1 fold IC50 after 48 hrs by Annexin-V-FITC/PI-staining based flow cytometric analysis (reference value: 1.61%); assay type: functional
# Sus scrofa = species on record: Sus scrofa; experiment: Inhibition of porcine brain tubulin polymerization measured every 1 min for 90 mins by microplate based assay in the presence of GTP
# MCF7 [19] = experiment: Induction of apoptosis in human MCF7 cells assessed as early apoptotic cells at 2 fold IC50 after 48 hrs by Annexin-V-FITC/PI-staining based flow cytometric analysis (reference value: 1.59%); assay type: functional
# [20] = Toxicity in BALB/c nude mouse xenografted with human MCF7 cells assessed as effect on heart at 2.5 mg/kg, iv administered every 2 days for 2 weeks; assay type: organism-based; details: in vivo, 336 h
# MCF7 [21] = experiment: Induction of cell cycle arrest in human MCF7 cells assessed as accumulation of cells at G2/M phase at 2 fold IC50 measured after 24 hrs by flow cytometry (reference value: 11 %); assay type: functional
# MCF7 [22] = experiment: Induction of apoptosis in human MCF7 cells assessed as early apoptotic cells at 3 fold IC50 after 48 hrs by Annexin-V-FITC/PI-staining based flow cytometric analysis (reference value: 1.59%); assay type: functional
# MCF7 [23] = experiment: Induction of apoptosis in human MCF7 cells assessed as viable cells at 3 fold IC50 after 48 hrs by Annexin-V-FITC/PI-staining based flow cytometric analysis (reference value: 96.2%); assay type: functional
# MCF7 [24] = experiment: Inhibition of cell migration in human MCF7 cells measured after 24 hrs by phase-contrast microscopy based wound healing assay; assay type: functional; details: dose 25-50 nM
# MCF7 [25] = experiment: Induction of apoptosis in human MCF7 cells assessed as viable cells at 2 fold IC50 after 48 hrs by Annexin-V-FITC/PI-staining based flow cytometric analysis (reference value: 96.2%); assay type: functional
compound,measurement,setting,value
CCOc1ccc(-c2ccc3ncn(-c4cc(OC)c(OC)c(OC)c4)c3c2)cc1,IC50,MCF7 [1],1710 nM
same,IC50,A549,8.55 µM
same,IC50,SGC-7901,2970 nM
COc1cc(-n2cnc3ccc(-c4cccc(C)c4C)cc32)cc(OC)c1OC,IC50,MCF7 [1],2150 nM
same,IC50,A549,9.25 µM
same,IC50,SGC-7901,3040 nM
COc1cc(-n2cnc3ccc(-c4cccc(N)c4)cc32)cc(OC)c1OC,IC50,MCF7 [1],180 nM
same,IC50,A549,0.64 µM
same,IC50,SGC-7901,21 nM
COc1cc(-n2cnc3ccc(-c4cccc(F)c4)cc32)cc(OC)c1OC,IC50,MCF7 [1],2350 nM
same,IC50,A549,5.27 µM
same,IC50,SGC-7901,2490 nM
COc1cc(-n2cnc3ccc(-c4cccc(Cl)c4)cc32)cc(OC)c1OC,IC50,MCF7 [1],3120 nM
same,IC50,A549,7.05 µM
same,IC50,SGC-7901,1490 nM
COc1cc(-n2cnc3ccc(-c4ccc(F)cc4)cc32)cc(OC)c1OC,IC50,MCF7 [1],1770 nM
same,IC50,A549,6.74 µM
same,IC50,SGC-7901,3500 nM
COc1cc(-n2cnc3ccc(-c4ccc(C)cc4)cc32)cc(OC)c1OC,IC50,MCF7 [1],110 nM
same,IC50,A549,1.94 µM
same,IC50,SGC-7901,200 nM
COc1ccc(-c2ccc3ncn(-c4cc(OC)c(OC)c(OC)c4)c3c2)cc1F,IC50,MCF7 [1],520 nM
same,IC50,A549,1.43 µM
same,IC50,SGC-7901,430 nM
COc1cc(-n2cnc3ccc(-c4ccc(O)cc4)cc32)cc(OC)c1OC,IC50,MCF7 [1],4160 nM
same,IC50,A549,5.09 µM
same,IC50,SGC-7901,> 10000 nM
COc1cc2c(c(OC)c1OC)-c1ccc(OC)c(=O)cc1[C@@H](NC(C)=O)CC2 [COLCHICINE],IC50,MCF7 [1],18 nM
same,IC50,A549,0.095 µM
same,IC50,SGC-7901,7 nM
COc1cc(-n2cnc3ccc(-c4ccccc4Cl)cc32)cc(OC)c1OC,IC50,MCF7 [1],> 10000 nM
same,IC50,A549,> 10 µM
same,IC50,SGC-7901,> 10000 nM
COc1cc(-n2cnc3ccc(-c4cccc([N+](=O)[O-])c4)cc32)cc(OC)c1OC,IC50,MCF7 [1],4560 nM
same,IC50,A549,5.41 µM
same,IC50,SGC-7901,380 nM
COc1cc(-n2cnc3ccc(-c4ccc(C(F)(F)F)cc4)cc32)cc(OC)c1OC,IC50,MCF7 [1],760 nM
same,IC50,A549,3.39 µM
same,IC50,SGC-7901,890 nM
COc1cc(-n2cnc3ccc(-c4ccc(Cl)cc4)cc32)cc(OC)c1OC,IC50,MCF7 [1],1320 nM
same,IC50,A549,> 10 µM
same,IC50,SGC-7901,1270 nM
COc1cc(-n2cnc3ccc(-c4ccc(C)cc4F)cc32)cc(OC)c1OC,IC50,MCF7 [1],56 nM
same,IC50,A549,> 10 µM
same,IC50,SGC-7901,5650 nM
COc1ccc(-c2ccc3ncn(-c4cc(OC)c(OC)c(OC)c4)c3c2)cc1,IC50,MCF7 [1],210 nM
same,IC50,A549,> 10 µM
same,IC50,SGC-7901,82 nM
Nc1ccn([C@@H]2O[C@H](CO)[C@@H](O)C2(F)F)c(=O)n1 [GEMCITABINE],Activity,[2],Toxic
COc1cc(-n2cnc3ccc(-c4cccc(C)c4)cc32)cc(OC)c1OC,IC50,MCF7 [1],360 nM
same,IC50,A549,3.82 µM
same,IC50,SGC-7901,1240 nM
COc1cc(-n2cnc3ccc(-c4ccc(Cl)cc4Cl)cc32)cc(OC)c1OC,IC50,MCF7 [1],5420 nM
same,IC50,A549,> 10 µM
same,IC50,SGC-7901,> 10000 nM
COc1cccc(-c2ccc3ncn(-c4cc(OC)c(OC)c(OC)c4)c3c2)c1,IC50,MCF7 [1],1610 nM
same,IC50,A549,3.18 µM
same,IC50,SGC-7901,3310 nM
COc1cc(-n2cnc3ccc(-c4ccc(C(C)=O)cc4)cc32)cc(OC)c1OC,IC50,MCF7 [1],1540 nM
same,IC50,A549,2.51 µM
same,IC50,SGC-7901,450 nM
COc1ccccc1-c1ccc2ncn(-c3cc(OC)c(OC)c(OC)c3)c2c1,IC50,MCF7 [1],1750 nM
same,IC50,A549,4.32 µM
same,IC50,SGC-7901,5050 nM
COc1cc(-n2cnc3ccc(-c4ccc([N+](=O)[O-])cc4)cc32)cc(OC)c1OC,IC50,MCF7 [1],740 nM
same,IC50,A549,8.94 µM
same,IC50,SGC-7901,79 nM
COc1ccc(-c2ccc3ncn(-c4cc(OC)c(OC)c(OC)c4)c3c2)cc1O,Activity,Tubulin (Homo sapiens) [3],Active
same,Activity,MCF7 [4],16%
same,Activity,MCF7 [5],0.96%
same,inhibition,Tubulin (Homo sapiens) [6],Active
same,Activity,MCF7 [7],0.271%
same,Activity,MCF7 [8],10.4%
same,Activity,MCF7 [9],75.1%
same,IC50,MCF7 [1],37 nM
same,Activity,[10],Non-Toxic
same,Activity,[11],Non-Toxic
same,Activity,MCF7 [12],11.4%
same,Activity,[13],Non-Toxic
same,Activity,MCF7 [14],15%
same,Activity,MCF7 [15],22%
same,Activity,4T1,52%
same,Activity,[16],Non-Toxic
same,Activity,MCF7 [17],4.4%
same,IC50,A549,0.2 µM
same,Activity,MCF7 [18],1.51%
same,inhibition,Sus scrofa,Dose-Dependent Effect
same,IC50,SGC-7901,44 nM
same,Activity,MCF7 [19],35.6%
same,Activity,[20],Non-Toxic
same,Activity,MCF7 [21],72%
same,Activity,MCF7 [22],37.6%
same,Activity,MCF7 [23],50.6%
same,inhibition,MCF7 [24],Dose-Dependent Effect
same,Activity,MCF7 [25],52.8%
COc1cc(-n2cnc3ccc(-c4ccccc4)cc32)cc(OC)c1OC,IC50,MCF7 [1],2290 nM
same,IC50,A549,3.06 µM
same,IC50,SGC-7901,290 nM
COc1cc(-n2cnc3ccc(-c4cc(F)ccc4F)cc32)cc(OC)c1OC,IC50,MCF7 [1],6420 nM
same,IC50,A549,7.94 µM
same,IC50,SGC-7901,6590 nM
COc1cc(-n2cnc3ccc(-c4cccc(O)c4)cc32)cc(OC)c1OC,IC50,MCF7 [1],350 nM
same,IC50,A549,0.25 µM
same,IC50,SGC-7901,53 nM
COc1cc(-c2ccc3ncn(-c4cc(OC)c(OC)c(OC)c4)c3c2)cc(OC)c1OC,IC50,MCF7 [1],> 10000 nM
same,IC50,A549,> 10 µM
same,IC50,SGC-7901,> 10000 nM
